Laboratory results published in patent US4547503A, “1-Cyclopropyl-6-fluoro-1,4-dihydro-4-oxo-7-[4-(oxo-alkyl)-1-piperazinyl ]quinoline-3-carboxylic acids and their derivatives, and antibacterial agents containing them” (Bayer Aktiengesellschaft, priority 1982, dated 1985).
In brackets after ≈: the same amount, converted by molar mass.

Legend:
Test in all cases: MIC, agar dilution test; Denley multipoint inoculation procedure
Format in all cases: cell-based
Staphylococcus 1746 = conditions: read-out: Minimum inhibitory concentration
Source text: (§1) In the table below, the minimum inhibitory concentrations (MIC) with a variety of bacteria for some of the compounds according to the invention are given. |Minimum inhibitory concentrations in mcg/ml in the agar dilution test;

Staphylococcus 133 = conditions: read-out: Minimum inhibitory concentration
Source text: as §1

Staphylococcus Fk 422 = conditions: FK422, read-out: Minimum inhibitory concentration
Source text: as §1

Klebsiella 8085 = conditions: read-out: Minimum inhibitory concentration
Source text: as §1

E. coli Neumann = conditions: Escherichia coli, read-out: Minimum inhibitory concentration
Source text: as §1

Klebsiella 57 USA = conditions: read-out: Minimum inhibitory concentration
Source text: as §1

Klebsiella 6179 = conditions: read-out: Minimum inhibitory concentration
Source text: as §1

Providencia 12052 = conditions: read-out: Minimum inhibitory concentration
Source text: as §1

Proteus morganii 932 = conditions: Morganella morganii, read-out: Minimum inhibitory concentration
Source text: as §1

E. coli A 261 = conditions: Escherichia coli, A261, read-out: Minimum inhibitory concentration
Source text: as §1

SMILES	MIC (Staphylococcus 1746) [µg/mL]	MIC (Staphylococcus 133) [µg/mL]	MIC (Staphylococcus Fk 422) [µg/mL]	MIC (Klebsiella 8085) [µg/mL]	MIC (E. coli Neumann) [µg/mL]	MIC (Klebsiella 57 USA) [µg/mL]	MIC (Klebsiella 6179) [µg/mL]	MIC (Providencia 12052) [µg/mL]	MIC (Proteus morganii 932) [µg/mL]	MIC (E. coli A 261) [µg/mL]
O=C(CN1CCN(c2cc3c(cc2F)c(=O)c(C(=O)O)cn3C2CC2)CC1)c1ccc(O)cc1O [Example 5]	0.25 (≈ 0.519 µM)	0.25 (≈ 0.519 µM)	0.25 (≈ 0.519 µM)	–	–	–	–	–	–	–
CC(=O)CCN1CCN(c2cc3c(cc2F)c(=O)c(C(=O)O)cn3C2CC2)CC1 [Example 12, 1-cyclopropyl-6-fluoro-1,4-dihydro-4-oxo-7-[4-(3-oxobutyl)-1-piperazinyl]quinoline-3-carboxylic acid]	0.5 (≈ 1.25 µM)	0.5 (≈ 1.25 µM)	0.5 (≈ 1.25 µM)	≤ 0.015	≤ 0.015	0.06 (≈ 0.149 µM)	0.25 (≈ 0.623 µM)	32 (≈ 79.7 µM)	≤ 0.015	≤ 0.015
CC(=O)CN1CCN(c2cc3c(cc2F)c(=O)c(C(=O)O)cn3C2CC2)CC1 [Example 1, 1-cyclopropyl-6-fluoro-1,4-dihydro-4-oxo-7-[4-(2-oxopropyl)-1-piperazinyl]quinoline-3-carboxylic acid]	0.25 (≈ 0.645 µM)	0.25 (≈ 0.645 µM)	0.25 (≈ 0.645 µM)	0.06 (≈ 0.155 µM)	0.06 (≈ 0.155 µM)	1 (≈ 2.58 µM)	2 (≈ 5.16 µM)	128 (≈ 330 µM)	0.06 (≈ 0.155 µM)	≤ 0.015
O=C(CN1CCN(c2cc3c(cc2F)c(=O)c(C(=O)O)cn3C2CC2)CC1)c1ccccc1 [Example 4]	1 (≈ 2.22 µM)	2 (≈ 4.45 µM)	2 (≈ 4.45 µM)	0.125 (≈ 0.278 µM)	0.03 (≈ 0.0667 µM)	0.06 (≈ 0.133 µM)	0.5 (≈ 1.11 µM)	128 (≈ 285 µM)	≤ 0.015	≤ 0.015
O=C(CN1CCN(c2cc3c(cc2F)c(=O)c(C(=O)O)cn3C2CC2)CC1)c1ccc(F)cc1 [Example 8]	1 (≈ 2.14 µM)	1 (≈ 2.14 µM)	1 (≈ 2.14 µM)	0.03 (≈ 0.0642 µM)	0.015 (≈ 0.0321 µM)	0.03 (≈ 0.0642 µM)	0.25 (≈ 0.535 µM)	64 (≈ 137 µM)	≤ 0.015	≤ 0.015
O=C(CN1CCN(c2cc3c(cc2F)c(=O)c(C(=O)O)cn3C2CC2)CC1)c1ccc(Cl)cc1 [Example 9]	2 (≈ 4.13 µM)	2 (≈ 4.13 µM)	2 (≈ 4.13 µM)	0.125 (≈ 0.258 µM)	0.03 (≈ 0.062 µM)	0.5 (≈ 1.03 µM)	1 (≈ 2.07 µM)	> 128	0.03 (≈ 0.062 µM)	≤ 0.015
